Like-named read-outs stand apart in the source and are kept apart here.
How the values were obtained:
53 CRE and CPE strains = assay: MICrange, MIC50, MIC80, MIC90 for 53 bacterial isolates (Example 5, Table 5); assay type: cell-based
A. baumannii = assay: MIC, broth microdilution, CDC/FDA Antibiotic Resistance Isolate Bank (Example 7, Tables 9, 13, 14); assay type: cell-based, Acinetobacter baumannii; conditions: for MIC: read-out: MIC
Enterobacterales = assay: MIC, broth microdilution, CDC/FDA Antibiotic Resistance Isolate Bank (Example 7, Tables 8, 11, 12); assay type: cell-based; conditions: for MIC50: read-out: MIC50; for MIC90: read-out: MIC90; for MIC: read-out: MIC
[1] = 154 strains of Enterobacterales
[2] = carbapenemase-producing Enterobacterales, Metallo-β-lactamase (N = 47)
[3] = carbapenemase-producing Enterobacterales, Serine carbapenemase (N=61)

CN(C)c1cc(NC(=O)CNC(C)(C)C)c(O)c2c1C[C@H]1C[C@H]3[C@H](N(C)C)C(O)=C(C(N)=O)C(=O)[C@@]3(O)C(O)=C1C2=O [Tigecycline, tigecycline]
1 µg/mL: MIC80 (53 CRE and CPE strains; 53 bacterial isolates, read-out: MIC80) | MIC (A. baumannii; Acinetobacter baumannii, A. baumannii KUB No. 5598, AR Bank #101, OXA-24, OXA-65) | MIC (A. baumannii; Acinetobacter baumannii, A. baumannii KUB No. 5599, AR Bank #102, OXA-66) | MIC (A. baumannii; Acinetobacter baumannii, A. baumannii KUB No. 5707, AR Bank #274, OXA-66, OXA-72) | MIC (A. baumannii; Acinetobacter baumannii, A. baumannii KUB No. 5709, AR Bank #276, no carbapenemase genes (-)) | MIC (A. baumannii; Acinetobacter baumannii, A. baumannii KUB No. 5710, AR Bank #277, OXA-24, OXA-65) | MIC (A. baumannii; Acinetobacter baumannii, A. baumannii KUB No. 5713, AR Bank #280, OXA-66) | MIC (A. baumannii; Acinetobacter baumannii, A. baumannii KUB No. 5716, AR Bank #283, OXA-23, OXA-66) | MIC (A. baumannii; Acinetobacter baumannii, KUB No. 5719, AR Bank #286) | MIC (A. baumannii; Acinetobacter baumannii, KUB No. 5722, AR Bank #259) | MIC (A. baumannii; Acinetobacter baumannii, KUB No. 5724, AR Bank #291) | MIC (A. baumannii; Acinetobacter baumannii, KUB No. 5728, AR Bank #295) | MIC (A. baumannii; Acinetobacter baumannii, KUB No. 5729, AR Bank #296) | MIC (A. baumannii; Acinetobacter baumannii, KUB No. 5732, AR Bank #299) | MIC (A. baumannii; Acinetobacter baumannii, KUB No. 5734, AR Bank #301) | MIC (A. baumannii; Acinetobacter baumannii, KUB No. 5735, AR Bank #302) | MIC (A. baumannii; Acinetobacter baumannii, KUB No. 5736, AR Bank #303) | MIC (A. baumannii; Acinetobacter baumannii, KUB No. 5737, AR Bank #304) | MIC (A. baumannii; Acinetobacter baumannii, KUB No. 5739, AR Bank #306) | MIC (A. baumannii; Acinetobacter baumannii, KUB No. 5740, AR Bank #307) | MIC (A. baumannii; Acinetobacter baumannii, KUB No. 5743, AR Bank #310) | MIC50 (A. baumannii; Acinetobacter baumannii, 55 isolates of A. baumannii, read-out: MIC50) | MIC80 (A. baumannii; Acinetobacter baumannii, 55 isolates of A. baumannii, read-out: MIC80) | MIC90 (A. baumannii; Acinetobacter baumannii, 55 isolates of A. baumannii, read-out: MIC90) | MIC80 (Enterobacterales; 154 strains of Enterobacterales, read-out: MIC80) | MIC (Enterobacterales; Enterobacter cloacae, KUB No. 5778, AR Bank # 432) | MIC (Enterobacterales; Klebsiella aerogenes, Enterobacter aerogenes, KUB No. 5777, AR Bank # 431) | MIC (Enterobacterales; Klebsiella pnemnonine, KUB No. 5758, AR Bank # 362) | MIC (Enterobacterales; Klebsiella pneumoniae, KUB No. 5757, AR Bank # 361) | MIC (Enterobacterales; Klebsiella pneumoniae, KUB No. 5760, AR Bank # 364) | MIC (Enterobacterales; Klebsiella pneumoniae, KUB No. 5772, AR Bank # 376) | MIC50 (Enterobacterales; [3])
2 µg/mL: MIC90 (53 CRE and CPE strains; 53 CRE and CPE strains, read-out: MIC90) | MIC90 (53 CRE and CPE strains; 53 bacterial isolates) | MIC (A. baumannii; Acinetobacter baumannii, A. baumannii KUB No. 5575, AR Bank #78, OXA-71) | MIC (A. baumannii; Acinetobacter baumannii, A. baumannii KUB No. 5714, AR Bank #281, OXA-82) | MIC (A. baumannii; Acinetobacter baumannii, KUB No. 5721, AR Bank #288) | MIC (A. baumannii; Acinetobacter baumannii, KUB No. 5726, AR Bank #293) | MIC (A. baumannii; Acinetobacter baumannii, KUB No. 5730, AR Bank #297) | MIC90 (Enterobacterales; [1]) | MIC (Enterobacterales; Enterobacter cloacae, KUB No. 5761, AR Bank # 365) | MIC (Enterobacterales; Enterobacter cloacae, KUB No. 5762, AR Bank # 366) | MIC (Enterobacterales; Klebsiella oxytoca, KUB No. 5776, AR Bank # 380) | MIC90 (Enterobacterales; [2]) | MIC90 (Enterobacterales; [3]) | MIC90 (Enterobacterales; metallo-β-lactamase-producing strains of Enterobacterales)
0.25 to 2 µg/mL: MICrange (A. baumannii; 55 isolates of A. baumannii)
0.12 to 4 µg/mL: MICrange (Enterobacterales; [1])
0.5 µg/mL: MIC50 (53 CRE and CPE strains; 53 bacterial isolates, read-out: MIC50) | MIC (A. baumannii; Acinetobacter baumannii, A. baumannii KUB No. 5580, AR Bank #83, OXA-23, OXA-69, NDM-1) | MIC (A. baumannii; Acinetobacter baumannii, A. baumannii KUB No. 5706, AR Bank #273, OXA-23, OXA-66) | MIC (A. baumannii; Acinetobacter baumannii, A. baumannii KUB No. 5708, AR Bank #275, OXA-23, OXA-66) | MIC (A. baumannii; Acinetobacter baumannii, A. baumannii KUB No. 5711, AR Bank #278, OXA-23, OXA-66) | MIC (A. baumannii; Acinetobacter baumannii, A. baumannii KUB No. 5712, AR Bank #279, OXA-23, OXA-66) | MIC (A. baumannii; Acinetobacter baumannii, A. baumannii KUB No. 5715, AR Bank #282, OXA-23, OXA-66) | MIC (A. baumannii; Acinetobacter baumannii, A. baumannii KUB No. 5717, AR Bank #284, OXA-24, OXA-65) | MIC (A. baumannii; Acinetobacter baumannii, A. baumannii KUB No. 5718, AR Bank #285, OXA-24, OXA-65) | MIC (A. baumannii; Acinetobacter baumannii, KUB No. 5720, AR Bank #287) | MIC (A. baumannii; Acinetobacter baumannii, KUB No. 5723, AR Bank #290) | MIC (A. baumannii; Acinetobacter baumannii, KUB No. 5727, AR Bank #294) | MIC (A. baumannii; Acinetobacter baumannii, KUB No. 5731, AR Bank #298) | MIC (A. baumannii; Acinetobacter baumannii, KUB No. 5733, AR Bank #300) | MIC (A. baumannii; Acinetobacter baumannii, KUB No. 5741, AR Bank #308) | MIC (A. baumannii; Acinetobacter baumannii, KUB No. 5742, AR Bank #309) | MIC (A. baumannii; Acinetobacter baumannii, KUB No. 5744, AR Bank #311) | MIC (A. baumannii; Acinetobacter baumannii, KUB No. 5746, AR Bank #313) | MIC50 (Enterobacterales; [1]) | MIC (Enterobacterales; Enterobacter cloacae, Enterobacter cloacae complex, KUB No. 5661, AR Bank # 164) | MIC (Enterobacterales; Enterobacter cloacae, KUB No. 5763, AR Bank # 367) | MIC (Enterobacterales; Escherichia coli, KUB No. 5768, AR Bank # 372) | MIC (Enterobacterales; Escherichia coli, KUB No. 5769, AR Bank # 373) | MIC (Enterobacterales; Escherichia coli, KUB No. 5770, AR Bank # 374) | MIC (Enterobacterales; Escherichia coli, KUB No. 5779, AR Bank # 433) | MIC (Enterobacterales; Escherichia coli, KUB No. 5780, AR Bank # 434) | MIC (Enterobacterales; Escherichia coli, KUB No. 5781, AR Bank # 435) | MIC (Enterobacterales; Escherichia, KUB No. 57, AR Bank # 436 (row cut off)) | MIC (Enterobacterales; Klebsiella oxytoca, KUB No. 5771, AR Bank # 375) | MIC (Enterobacterales; Klebsiella pneumoniae, KUB No. 5759, AR Bank # 363) | MIC (Enterobacterales; Proteus mirabilis, KUB No. 5775, AR Bank # 379) | MIC50 (Enterobacterales; [2])
3: Number of isolates at MIC ≤[…] (A. baumannii; MIC distribution, metallo-β-lactamase-producing A. baumannii, inhibitor µg/mL in parentheses)
0.25 µg/mL: MIC (A. baumannii; Acinetobacter baumannii, A. baumannii KUB No. 5567, AR Bank #70, OXA-58, OXA-100) | MIC (A. baumannii; Acinetobacter baumannii, A. baumannii KUB No. 5585, AR Bank #88, OXA-64, NDM-1) | MIC (A. baumannii; Acinetobacter baumannii, KUB No. 5725, AR Bank #292) | MIC (A. baumannii; Acinetobacter baumannii, KUB No. 5738, AR Bank #305) | MIC (A. baumannii; Acinetobacter baumannii, KUB No. 5745, AR Bank #312) | MIC (Enterobacterales; Escherichia coli, KUB No. 5764, AR Bank # 368) | MIC (Enterobacterales; Escherichia coli, KUB No. 5765, AR Bank # 369) | MIC (Enterobacterales; Escherichia coli, KUB No. 5766, AR Bank # 370) | MIC (Enterobacterales; Escherichia coli, KUB No. 5767, AR Bank # 371) | MIC (Enterobacterales; Escherichia coli, KUB No. 5774, AR Bank # 378)
0.12 to 16 µg/mL: MICrange (53 CRE and CPE strains; 53 bacterial isolates)
4 µg/mL: MIC (Enterobacterales; Enterobacter cloacae, KUB No. 5660, AR Bank # 163) | MIC (Enterobacterales; Proteus mirabilis, KUB No. 5773, AR Bank # 377)

— patent EP4635500A1, “THERAPEUTIC AGENT FOR BACTERIAL INFECTION” (Sumitomo Pharma Co., Ltd., priority 2022, dated 2024)
